The values below come from ChEMBL document CHEMBL1121776, “Folate antagonists. 18. Synthesis and antimalarial effects of N6-(arylmethyl)-N6-methyl-2,4,6-pteridinetriamines and related N6,N6-disubstituted 2,4,6-pteridinetriamines” (1981).

Holding throughout (assay type): functional
Assay [1] has as its system Escherichia coli. Put plainly: In vitro antibacterial effect against E. c. Vogel by using gradient plate test.
The subject of assay [2] is Mus musculus. Put plainly: Parenteral antimalarial effect against Plasmodium berghei in mice (Mus musculus) at a dose of 160 mg/kg subcutaneously 10/10. To be noted: route subcutaneous.
Assay [3] deals with Mus musculus. Kind of assay: Parenteral antimalarial effect against Plasmodium berghei in mice (Mus musculus) at a dose of 640 mg/kg subcutaneously; Number of mice (Mus musculus) surviving at 60 days post infection and cured 10/10. Conditions: route subcutaneous.
The subject of assay [4] is Mus musculus. Put plainly: Parenteral antimalarial effect against Plasmodium berghei in mice (Mus musculus) at a dose of 10sc mg/kg.
The test system of assay [5] is Mus musculus. Kind of assay: Parenteral antimalarial effect against Plasmodium berghei in mice (Mus musculus) at a dose of 20sc mg/kg.
For assay [6], the system named is Mus musculus. Put plainly: Parenteral antimalarial effect against Plasmodium berghei in mice (Mus musculus) at a dose of 320 mg/kg subcutaneously; 5/5. Conditions: route subcutaneous.
Assay [7] has as its system Mycobacterium tuberculosis. Kind of assay: In vitro antibacterial effect against Mycobacterium tuberculosis H37Rv by using gradient plate test.
Assay [8] has as its system Pseudomonas aeruginosa. Put plainly: In vitro antibacterial effect against Pseudomonas aeruginosa 28 by using gradient plate test.
Assay [9] relates to Shigella sonnei. Kind of assay: In vitro antibacterial effect against Shigella sonnei C-10 by using gradient plate test.
Assay [10] concerns Staphylococcus aureus. Put plainly: In vitro antibacterial effect against Staphylococcus aureus S18713 by using gradient plate test.
The subject of assay [11] is Enterococcus faecalis. Kind of assay: In vitro antibacterial effect against Streptococcus faecalis MGH-2.
Assay [12] deals with Staphylococcus aureus. Kind of assay: In vitro antibacterial effect against Staphylococcus aureus UC-76 by using gradient plate test.
The test system of assay [13] is Escherichia coli. Kind of assay: In vitro antibacterial effect against Escherichia coli Vogel by using gradient plate test.
Assay [14] concerns Mus musculus. Put plainly: Parenteral antimalarial effect against Plasmodium berghei in mice (Mus musculus) at a dose of 160 mg/kg subcutaneously; Number of mice (Mus musculus) surviving at 60 days post infection and cured 8/10. To be noted: route subcutaneous.
Assay [15] has as its system Mus musculus. Kind of assay: Parenteral antimalarial effect against Plasmodium berghei in mice (Mus musculus) at a dose of 40sc mg/kg; Number of mice (Mus musculus) surviving at 60 days post infection and cured 6/10.
In assay [16] the test system is Mus musculus. Put plainly: Parenteral antimalarial effect against Plasmodium berghei in mice (Mus musculus) at a dose of 160 subcutaneously mg/kg.
Assay [17] concerns Mus musculus. Put plainly: Parenteral antimalarial effect against Plasmodium berghei in mice (Mus musculus) at a dose of 80 mg/kg subcutaneously. To be noted: route subcutaneous.
Assay [18] has as its system Mus musculus. Put plainly: Parenteral antimalarial effect against Plasmodium berghei in mice (Mus musculus) at a dose of 640 subcutaneously mg/kg; Number of mice (Mus musculus) surviving at 60 days post infection and cured 4/10.
The subject of assay [19] is Mus musculus. Kind of assay: Parenteral antimalarial effect against Plasmodium berghei in mice (Mus musculus) at a dose of 320 subcutaneously mg/kg; Number of mice (Mus musculus) surviving at 60 days post infection and cured 1/5.
In assay [20] the test system is Mus musculus. Kind of assay: Parenteral antimalarial effect against Plasmodium berghei in mice (Mus musculus) at a dose of 40 mg/kg subcutaneously. Conditions: route subcutaneous.
For assay [21], the system named is Mus musculus. Kind of assay: Parenteral antimalarial effect against Plasmodium berghei in mice (Mus musculus) at a dose of 160 mg/kg subcutaneously; Number of mice (Mus musculus) surviving at 60 days post infection and cured 6/10. Conditions: route subcutaneous.
The subject of assay [22] is Mus musculus. Kind of assay: Parenteral antimalarial effect against Plasmodium berghei in mice (Mus musculus) at a dose of 320 mg/kg subcutaneously; Number of mice (Mus musculus) surviving at 60 days post infection and cured 3; No of toxic deaths 2. Conditions: route subcutaneous.
Assay [23] concerns Mycobacterium tuberculosis. Put plainly: In vitro antibacterial effect against M. t. H37Rv by using gradient plate test.
Assay [24] relates to Pseudomonas aeruginosa. Put plainly: In vitro antibacterial effect against P.a 28 by using gradient plate test.
Assay [25] relates to Shigella sonnei. Put plainly: In vitro antibacterial effect against S. s C-10 by using gradient plate test.
The test system of assay [26] is Staphylococcus aureus. Put plainly: In vitro antibacterial effect against S. a. S18713 by using gradient plate test.
For assay [27], the system named is Staphylococcus aureus. Kind of assay: In vitro antibacterial effect against S. a. UC-76 by using gradient plate test.
In assay [28] the test system is Enterococcus faecalis. Kind of assay: In vitro antibacterial effect against S. f MGH-2.

As usually defined, the MIC is the least concentration at which growth counts as inhibited. Read a high MIC as a need for much substance.

Values after ≈ are worked out from the molar mass of the structure shown.

For `CN(Cc1ccc(Cl)c(Cl)c1)c1cnc2nc(N)nc(N)c2n1`, the MIC in [1] was > 25 µg/mL; in [7], 10 µg/mL (≈ 28.6 µM); in assay [8], > 25 µg/mL; in assay [9], > 25 µg/mL; in assay [10], < 0.25 µg/mL; in [11], < 0.25 µg/mL. Further, the MIC in assay [12] was < 0.25 µg/mL. The MST is 10 days in assay [2]; 10 days in assay [3]; 2.5 days in [4]; 10.6 days in assay [5]; 5 days in assay [6].

With `COc1cc(CN(C)c2cnc3nc(N)nc(N)c3n2)cc(OC)c1OC`, the MIC in assay [13] is > 25 µg/mL; in assay [7], > 25 µg/mL; in [8], > 25 µg/mL; in assay [9], > 25 µg/mL; in assay [10], < 0.25 µg/mL; in assay [11] it was < 0.25 µg/mL. Also, in assay [12], the MIC is < 0.25 µg/mL. Further, the MST in [3] came to 10 days; in [14] it was 8 days; in assay [5] it was 5.5 days; in assay [15] it was 6 days.

For `CN(Cc1cccc(Br)c1)c1cnc2nc(N)nc(N)c2n1`, the MST in assay [16] amounted to 12.8 days; in assay [17], 10.7 days; in assay [18], 4 days; in assay [5], 6.9 days; in assay [19] it was 1 days; in assay [20], 10.2 days.

As for `CN(Cc1ccccc1Cl)c1cnc2nc(N)nc(N)c2n1`, the MIC in [1] is > 25 µg/mL; in [7], 5 µg/mL (≈ 15.8 µM); in [8], > 25 µg/mL; in assay [9], > 25 µg/mL; in [10] it was < 0.25 µg/mL; in assay [11] it was < 0.25 µg/mL. Besides, the minimal inhibitory concentration (MIC) in [12] was < 0.25 µg/mL. The MST in [21] turned out to be 6 days; in [5], 9.5 days; in [22], 3 days.

With `COc1cc(Cc2cnc(N)nc2N)cc(OC)c1OC` [TRIMETHOPRIM], the minimum inhibitory concentration (MIC) is > 25 µg/mL in [1]; > 25 µg/mL in [23]; > 25 µg/mL in [24]; > 25 µg/mL in assay [25]; < 0.25 µg/mL in assay [26]; < 0.25 µg/mL in [27]. The minimum inhibitory concentration (MIC) in assay [28] is < 0.25 µg/mL.
